Experimental data as given in US20240327334A1, “Covalent Inhibitors As Antiviral Agents” (Enanta Pharmaceuticals, Inc., priority 2022, published 2024).

Legend:
SARS-CoV-2 replicon = assay: microbe, parasite or virus in culture; type: cell-based; conditions: Severe acute respiratory syndrome coronavirus 2, Huh-7
[1] = biological target: SARS-CoV-2 Papain-like (PLpro) protease (Severe acute respiratory syndrome coronavirus 2, UniProt P0DTD1); assay: SARS-CoV-2 Papain-like (PLpro) protease biochemical enzyme inhibition assay (ubiquitin-fluorophore substrate, Ub-R110); conditions: Ub-R110 substrate; run in duplicate; read-out: PLpro IC50

| SMILES | EC50 (SARS-CoV-2 replicon) [nM] | IC50 [1] [nM] |
| --- | --- | --- |
| N#CCNC(=O)C(=O)NCc1ccc(C(=O)N2CC(F)(F)C2)cc1C(=O)NC1(c2ccc(F)c3ccccc23)CC1 [Example 62] | 1000 to 10000 | < 100 |
| COC(=O)/C=C/CNC(=O)C(=O)NCc1ccccc1C(=O)NC1(c2cccc3ccccc23)CC1 [Example 4] | < 1000 | < 100 |
| CONC(=O)/C=C/CNC(=O)C(=O)NCc1ccccc1C(=O)NC1(c2cccc3ccccc23)CC1 [Example 560] | 1000 to 10000 | 100 to 1000 |
| N#CCNC(=O)C(=O)NCc1ccccc1C(=O)NC1(c2cccc3cc(F)ccc23)CC1 [Example 54] | < 1000 | < 100 |
| O=C(NCC#Cc1nccs1)C(=O)NCc1ccccc1C(=O)NC1(c2cnc3ccccc3c2)CC1 [Example 393] | 1000 to 10000 | < 100 |
| C#CCNC(=O)C(=O)NCc1ccccc1C(=O)NC1(c2cc(OC)c3nn(C4CC4)cc3c2)CC1 [Example 343] | < 1000 | < 100 |
| C[C@@H](NC(=O)c1ccccc1CNC(=O)C(=O)NCC#Cc1nccs1)c1cc(F)cc(-c2cnn(C3CC3)c2)c1 [Example 491] | < 1000 | < 100 |
| N#CCNC(=O)C(=O)NCc1ccccc1C(=O)NC1(c2ccc(F)c3ccccc23)CC1 [Example 121] | < 1000 | < 100 |
| O=C(NCC#Cc1nccs1)C(=O)NCc1ccccc1C(=O)NC1(c2cc(F)cc(-c3cnn(C(F)F)c3)c2)CC1 [Example 81] | < 1000 | < 100 |
| C#CCNC(=O)C(=O)NCc1ccccc1C(=O)NC1(c2cc(-c3cnn(C4CC4)c3)cc(C(F)(F)F)c2)CC1 [Example 471] | < 1000 | < 100 |
| Cc1nn(C)cc1-c1cc(Cl)cc(C2(NC(=O)c3ccccc3CNC(=O)C(=O)NCC#Cc3nccs3)CC2)c1 [Example 486] | < 1000 | < 100 |
| C#CCNC(=O)C(=O)NCc1ccccc1C(=O)NC1(c2cc(OC)cc(-c3cnn(C4CC4)c3)c2)CC1 [Example 244] | < 1000 | < 100 |
| COC(=O)C#CCCNC(=O)C(=O)NCc1ccccc1C(=O)N[C@H](C)c1cccc2ccccc12 [Example 8] | < 1000 | < 100 |
| O=C(NCC#Cc1cnc(C2CC2)nc1)C(=O)NCc1ccccc1C(=O)NC1(c2ccc3ccccc3c2)CC1 [Example 180] | 1000 to 10000 | 1000 to 10000 |
| O=C(NCC#Cc1nccs1)C(=O)NCc1ccccc1C(=O)NC1(c2ccn3nccc3c2)CC1 [Example 399] | < 1000 | < 100 |
| N#CCNC(=O)C(=O)NCc1ccccc1C(=O)NC1(c2cc(F)cc(Br)c2)CC1 [Example 218] | > 10000 | 100 to 1000 |
| N#CCNC(=O)C(=O)NCc1ccccc1C(=O)NC1(c2cc(Cl)cc(-c3cnn(C(F)F)c3)c2)CC1 [Example 456] | 1000 to 10000 | < 100 |
| CN1C[C@H](F)CC1COc1ccc(CNC(=O)C(=O)NCC#N)c(C(=O)NC2(c3cc(-c4cnn(C5CC5)c4)cc4ccccc34)CC2)c1 (some centres unmarked) [Example 322] | < 1000 | < 100 |
| Cn1cc2cc(C3(NC(=O)c4ccccc4CNC(=O)C(=O)NCC#Cc4ccc(C#N)cc4F)CC3)ccc2n1 [Example 103] | < 1000 | < 100 |
| N#CCNC(=O)C(=O)NCc1ccccc1C(=O)NC1(c2cc(-c3cncs3)cc3ccccc23)CC1 [Example 349] | < 1000 | < 100 |
| C#CCNC(=O)C(=O)NCc1ccccc1C(=O)NC1(c2cc(-c3ccccc3)cc(C(F)(F)F)c2)CC1 [Example 469] | 1000 to 10000 | < 100 |
| COC(=O)/C=C/CNC(=O)C(=O)NCc1cc(F)c(F)cc1C(=O)N[C@H](C)c1cccc2ccccc12 [Example 362] | < 1000 | < 100 |

| SMILES | EC50 (SARS-CoV-2 replicon) [nM] | IC50 [1] [nM] |
| --- | --- | --- |
| O=C(NC/C=C1\CCOC1=O)C(=O)NCc1ccccc1C(=O)NC1(c2cc(Br)cc3ccccc23)CC1 [Example 151] | < 1000 | < 100 |
| N#CCNC(=O)C(=O)NCc1ccccc1C(=O)NC1(c2cc(Cl)cc(-n3cccn3)c2)CC1 [Example 480] | 1000 to 10000 | < 100 |
| N#CCNC(=O)C(=O)NCc1ccccc1C(=O)NC1(c2cc(-c3cnn(C(F)F)c3)cc(C(F)(F)F)c2)CC1 [Example 472] | > 10000 | 100 to 1000 |
| N#CCNC(=O)C(=O)NCc1ccccc1C(=O)NC1(c2cc(-c3cnn(C4CC4)c3)nc3c2ccn3C2CC2)CC1 [Example 413] | < 1000 | < 100 |
| C#CCNC(=O)C(=O)NCc1ccccc1C(=O)NC1(c2cc(Cl)cc(-c3c(C)nn(C4CC4)c3C)c2)CC1 [Example 131] | < 1000 | < 100 |
| COc1cc(C#N)ccc1C#CCNC(=O)C(=O)NCc1ccccc1C(=O)NC1(c2ccc3ccccc3c2)CC1 [Example 88] | < 1000 | < 100 |
| C[C@@H](C#Cc1c(F)cccc1C#N)NC(=O)C(=O)NCc1ccccc1C(=O)NC1(c2ccc3nn(C)cc3c2)CC1 [Example 100] | < 1000 | < 100 |
| N#CCNC(=O)C(=O)NCc1ccccc1C(=O)NC1(c2cc(F)cc(-c3cccs3)c2)CC1 [Example 220] | 1000 to 10000 | < 100 |
| COc1cccc(C#CCNC(=O)C(=O)NCc2ccccc2C(=O)NC2(c3ccc4ccccc4c3)CC2)n1 [Example 186] | < 1000 | < 100 |
| N#CCNC(=O)C(=O)NCc1ccccc1C(=O)NC1(c2cccc(-c3cccs3)c2Cl)CC1 [Example 382] | 1000 to 10000 | < 100 |
| Cn1cc2cc(C3(NC(=O)c4ccccc4CNC(=O)C(=O)NCC#Cc4ccc(C#N)cc4OC(F)(F)F)CC3)ccc2n1 [Example 214] | < 1000 | < 100 |
| N#CCNC(=O)C(=O)NCc1ccccc1C(=O)NC1(c2cc(-c3cccs3)cc3ccccc23)CC1 [Example 347] | < 1000 | < 100 |
| C[C@@H](NC(=O)c1ccccc1CNC(=O)C(=O)NCC#N)c1cc(-c2cnn(C3CC3)c2)cc(C(F)(F)F)c1 [Example 458] | < 1000 | < 100 |
| C#CCNC(=O)C(=O)NCc1ccccc1C(=O)NC1(c2cc(C#N)cc(-c3cccs3)c2)CC1 [Example 128] | < 1000 | < 100 |
| Cc1nn(C)c(C)c1-c1cc(F)cc(C2(NC(=O)c3ccccc3CNC(=O)C(=O)NCC#Cc3nccs3)CC2)c1F [Example 295] | < 1000 | < 100 |
| N#CCNC(=O)C(=O)NCc1ccccc1C(=O)NC1(c2cc(-c3cnn(C4CC4)c3)c3ccccc3c2)CC1 [Example 307] | 1000 to 10000 | < 100 |
| C[C@@H](C#Cc1nccs1)NC(=O)C(=O)NCc1ccccc1C(=O)N[C@H](C)c1cc(F)cc(-c2cnn(C3CC3)c2)c1 [Example 495] | < 1000 | < 100 |
| O=C(NCC#Cc1nccs1)C(=O)NCc1ccccc1C(=O)NC1(c2cc(Cl)cc(-c3ccccc3F)c2)CC1 [Example 442] | < 1000 | < 100 |
| C[C@@H](C#Cc1nccs1)NC(=O)C(=O)NCc1ccccc1C(=O)NC1(c2ccc3nn(C)cc3c2)CC1 [Example 184] | < 1000 | < 100 |
| N#CCNC(=O)C(=O)NCc1ccccc1C(=O)NC1(c2cc(-c3cnn[nH]3)cc3ccccc23)CC1 [Example 425] | < 1000 | < 100 |
| Cn1ncc2cc(C3(NC(=O)c4ccccc4CNC(=O)C(=O)NCC#Cc4nccs4)CC3)ccc21 [Example 345] | < 1000 | < 100 |
